Data from patent US8629251B2, “Specific detection and quantification of phosphatidic acid using an Arabidopsis trigalactosyldiacylglycerol-4 (TGD4) protein” (Board of Trustees of Michigan State University, priority 2008, dated 2014).
Where no end group is shown, it is not given here.

Tests used:
[1] = molecular target: T1, Arabidopsis TGD4, DsRED-TGD4-His, full-length TGD4 1-479 (SEQ ID NO: 132) (Arabidopsis thaliana, UniProt Q9M903); assay: Liposome association assay, DsRED-TGD4-His; assay type: binding; settings: 40 mol % PtdOH and 60 mol % PtdCho liposomes, FIG. 18C, D
T1 sequence (Q9M903 1-479): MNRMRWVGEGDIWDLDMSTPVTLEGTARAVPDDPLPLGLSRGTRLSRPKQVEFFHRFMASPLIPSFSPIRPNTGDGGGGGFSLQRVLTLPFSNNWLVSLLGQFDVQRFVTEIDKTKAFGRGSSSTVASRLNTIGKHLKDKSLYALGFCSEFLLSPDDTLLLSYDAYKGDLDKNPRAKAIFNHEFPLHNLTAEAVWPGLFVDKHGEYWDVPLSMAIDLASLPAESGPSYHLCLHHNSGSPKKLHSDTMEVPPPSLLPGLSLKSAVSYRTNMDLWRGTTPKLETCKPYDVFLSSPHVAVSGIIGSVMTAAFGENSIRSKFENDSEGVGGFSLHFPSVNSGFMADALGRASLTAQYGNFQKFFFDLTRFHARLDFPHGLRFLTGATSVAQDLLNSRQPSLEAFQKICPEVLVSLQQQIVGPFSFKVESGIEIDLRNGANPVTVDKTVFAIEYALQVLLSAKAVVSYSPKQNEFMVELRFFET
Description: Liposome Association Assay:
(§1) The liposome association assay was adapted from (Awai et al., 2006, Lu and Benning, 2009) with minor modifications. Dioleoyl-PtdCho and PtdOH with different acyl chain lengths and desaturation levels were used for making liposomes. In other liposomes 1-palmitoyl-2-(12-((7-nitro-2-1,3-benzoxadiazol-4-yl)amino)dodecanoyl)-sn-glycero-3-phosphate (NBD-PtdOH; Avanti, Alabaster, Ala.) was used. The lipids were mixed at indicated ratios to give a total lipid amount of 250 μg. The lipids were dried under a stream of nitrogen, resuspended in 0.5 ml TBS buffer with 0.2 M choline chloride and hydrated at 37° C. for 1 hour followed by vigorous vortexing for 2 minutes. The resulting multi-lamellar vesicles were centrifuged at 13,000×g for 10 minutes and then washed once with TBS buffer containing 0.2 M choline chloride. The liposomes were resuspended into 100 μl TBS buffer with 0.2 M choline chloride and incubated with 2 μg purified DsRED-TGD4-His protein and its derivatives. The protein liposome mixture was incubated on ice for 30 minutes followed by centrifugation at 13,000×g for 10 minutes and two washes with 500 μl TBS containing 0.2 M choline chloride. The resulting protein-liposome pellet was resuspended in 20 μl 2× Laemmli buffer (Laemmli, 1970) and processed by SDS-PAGE (Shapiro and Maizel, 1969).

DsRED-TGD4-His = molecular target: T2, DsRED-TGD4-His (Arabidopsis thaliana, UniProt Q9M903); assay: Precipitation / stabilizer test of DsRED-TGD4-His; assay type: physicochemical; settings: 5 μg protein with stabilizer, 4° C., 2 hours, 13,000×g pellet by SDS-PAGE
T2 construct: the DsRED protein was fused to the N-terminus of the full-length TGD4 protein; made in house; host or cells: E. coli BL21 (DE3)
T2 sequence (Q9M903 1-479): T1 sequence (Q9M903 1-479)
Description: FIG. 23A: 5 μg DsRED-TGD4-His was incubated with various protein stabilizers at 4° C. for 2 hours followed by centrifugation at 13,000×g for 10 minutes. The pellet was analyzed by SDS-PAGE. TBS: Tris-buffered saline, Glycerol: 20% glycerol; PEG: 20% polyethylene; Pectin: 5% pectin; ChoCl: 1 M choline chloride; Glycine: 1 M glycine; Urea: 1 M urea; BSA: 0.5 mg/ml bovine serum albumin; PBS: phosphate-buffered saline.
FIG. 23B: 5 μg DsRED-TGD4-His was treated with either 2 M sodium chloride or choline chloride as described above.
Lipid binding properties of TGD4 were investigated by producing TGD4 fused to DsRED. The DsRED protein is a red fluorescent protein of the coral Discosoma sp. (Gross et al., 2000, herein incorporated by reference).

[2] = molecular target: Arabidopsis TGD2, DsRed fusion of the 25-mer minimal domain (residues 201-225, SEQ ID NO:12), K221A (Arabidopsis thaliana, UniProt Q9LTR2, K221A); assay: Liposome-association assay, point mutant K221A of the minimal domain; assay type: binding; settings: PC liposomes; any of the constructs
Description: Some reports have identified that TGD2 PA-binding regions involve basic amino acids and/or tryptophan residues (10). […] Based on sequence similarity of TGD2 to its closely related homologs in plants and green algae, several charged and/or conserved amino acids were picked as potential interesting residues in the 25-mer minimal domain for possibly mediating interactions with PA. An alanine screen was then performed to evaluate these residues within a minimal PA binding region of TGD2 (i.e., for example, SEQ ID NO:12). Point mutations were generated in the 25-mer minimal domain and fused with DsRed to test PA binding by liposome-association assay using 100% PA liposomes.
The liposome association assay was performed as previously reported. (31). […]
(§2) Liposomes (200 μg) were mixed with purified DsRed-TGD2 fusion protein and TBS to make a final 100 μL solution. […] The liposome pellet mixed with sample buffer was analyzed by SDS-PAGE (28). […]
(§3) The protein band was visualized by chemiluminescent detection kit from Sigma. The autoradiography film was scanned, distinct protein bands were quantified using computer software Multi Gauge V3.0 (Fujifilm USA, Valhalla, N.Y.) and resulted data were plotted and analyzed by OriginPro8 (Origin lab corporation, Northampton, Mass.).

[3] = molecular target: T3, Arabidopsis TGD2, DsRed-TGD2C WT (DR-WT) fusion protein, residues 119-381, SEQ ID NO:107 (Arabidopsis thaliana, UniProt Q9LTR2); assay: Liposome-association assay (mixed PA/PC liposomes), DsRed-TGD2C WT; assay type: binding; settings: PC, PA/PC or PA liposomes, FIG. 3B
T3 construct: made in house; host or cells: Escherichia coli BL21 (DE3)
T3 sequence (Q9LTR2 119-381): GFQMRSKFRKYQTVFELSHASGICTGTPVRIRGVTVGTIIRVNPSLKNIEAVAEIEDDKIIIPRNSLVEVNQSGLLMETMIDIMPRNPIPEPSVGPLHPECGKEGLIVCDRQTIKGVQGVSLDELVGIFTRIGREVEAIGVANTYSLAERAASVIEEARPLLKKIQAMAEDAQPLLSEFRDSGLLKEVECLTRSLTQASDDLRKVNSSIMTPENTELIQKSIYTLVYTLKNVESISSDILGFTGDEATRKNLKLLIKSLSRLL
Description: FIG. 2A: Analysis by liposome-association assay. A mixture of dioleoyl-PA and dioleoyl-PC was used where the weight percent of PA was varied from 0-100% (wt/wt), maintaining the total lipid invariant at 250 μg. 1 μg protein was used. P, protein recovered in the absence of lipids.
(§4) In this assay, purified recombinant proteins were incubated with liposomes for 30 min at 30° C. before centrifugation at 20,000 g for 10 min to pellet the liposomes. Proteins bound to the liposomes were found associated with the lipid pellet, whereas non-binding proteins remained in the supernatant. In an effort to determine the optimal concentration of PA required for high specificity binding, a PA/PC liposome mixture containing varying weight fractions of PA was prepared and incubated with DsRed-TGD2CWT or DsRed alone.
(§5) The liposome association assay was performed as previously reported. (31). Briefly, lipids (dioleoyl-phosphatidylcholine, DOPC or dioleoyl-PA, DOPA) were incubated in TBS (50 mM Tris-HCl, pH 7; 0.1 M NaCl) at 37° C. for an hour followed by vigorous vortexing for 5 min. The liposomes were precipitated at 20,000 g and washed twice with ice-cold TBS.
(§6) Liposomes (200 μg) were mixed with purified DsRed-TGD2 fusion protein and TBS to make a final 100 μL solution. The mixture was incubated at 30° C. for 30 min and washed twice with ice-cold TBS by centrifugation at 20,000 g at 4° C. The liposome pellet mixed with sample buffer was analyzed by SDS-PAGE (28). Immuno-detection of the His-tagged protein was accomplished using the above mentioned Penta-His antibody at 1:15,000 and the anti mouse antibody at 1:75,000 dilution.
as §3

[4] = tested on: DsRed protein (Discosoma sp. red fluorescent protein); assay: Liposome-association assay, DsRed control; assay type: binding; settings: FIG. 3B
Description: as §5, §6, §3

[5] = molecular target: T4, Arabidopsis TGD2, N-terminally truncated TGD2-dTMD-His (from Gly-119) (Arabidopsis thaliana, UniProt Q9LTR2); assay: Liposome binding assay, TGD2-dTMD-His; settings: phosphatidylcholine liposomes with or without PA (6:4 wt/wt)
T4 sequence (Q9LTR2 119-381): T3 sequence (Q9LTR2 119-381)
Description: The liposome binding assay was performed as previously reported. Sano et al., (1998) J. Biol. Chem. 273:4783-4789. Lipids (i.e., for example, phosphatidylcholine or a mixture of phosphatidylcholine and PA at 6:4 wt/wt) were incubated in TBS (50 mM Tris/HCl, pH 7/0.1M NaCl) at 37° C. for 1 hour followed by vigorous vortexing for 5 min. The liposomes were precipitated at 20,000×g and washed twice with ice-cold TBS.
Liposomes (200 μg) were mixed with purified TGD2 protein lacking the TMD (10 μg/ml) and TBS to make 100 μl of solution. The mixture was incubated at 30° C. for 30 min and washed twice with ice-cold TBS by centrifugation at 20,000×g at 4° C. The liposome pellet mixed with sample buffer was analyzed by SDS/PAGE. Laemmli, U. K. (1970) Nature 227, 680-685. Immunodetection of the His-tagged protein was accomplished by using the above-mentioned Penta-His antibody at 1:6,000 and the anti-mouse antibody at 1:10,000 dilutions. The BCIP/NBT Kit from Bio-Rad was used for color detection.

[6] = Liposome-association assay of DsRed-TGD2 fusion proteins; assay type: binding; settings: PA/PC or 100% PA liposomes
Description: as §4, §5, §2, §3

[7] = Liposome association assay of DsRED-TGD4-His and derivatives; assay type: binding; settings: dioleoyl-PtdOH/dioleoyl-PtdCho liposomes, 0 to 80% PtdOH by weight, FIG. 19
Description: as §1

[8] = Protein-lipid overlay assay of DsRED-TGD4 fusion proteins; assay type: binding
Description: The protein-lipid overlay assay was modified from (Awai et al., 2006, Lu and Benning, 2009). Phosphoinositol-4,5-bisphosphate PIP2) lipid strips were purchased from Echelon Biosciences (Salt Lake City, Utah). Lipids spotted onto membranes were purchased from Avanti Polar Lipids (Alabaster, Al.) as well as Larodan Fine Chemicals (Malmo, Sweden). Lipids (10 nmol) were suspended in 20 μl spotting buffer (250 μl chloroform, 500 μl methanol, 200 μl 50 mM HCl, 2 μl 1% (w/v) Ponseau S (Sigma, St. Louis, Mo.)) and spotted onto Amersham Hybond-C Extra membranes (GE Healthcare, Piscataway, N.J.) followed by drying for 1 hour in a fume hood. The lipid membranes were then blocked in 3% (w/v) bovine serum albumin (BSA) in TBST buffer (TBS with 0.25% (v/v) Tween 20) for 2 hours at room temperature. Purified DsRED-TGD4-His fusion proteins were added at 1 μg/ml final concentration and incubated overnight at 4° C. followed by washing 3 times in TBST. Lipid membranes were then incubated with 1:2000 diluted His antibody (Sigma) in blocking buffer for 2 hours at room temperature followed by 2 washes with TBST. The membranes were processed for immunoblotting as described below.

Chain of Arabidopsis TGD2, DsRed fusion of the 25-mer minimal domain (residues 201-225, SEQ ID NO:12), K221A (Q9LTR2 201-225 K221A): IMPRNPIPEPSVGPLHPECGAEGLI

Molecule: CCCCCCCCCCCCCCCC(=O)OC[C@H](COP(=O)(O)O)OC(=O)CCCCCCCCCCCNc1ccc([N+](=O)[O-])c2nonc12 [1-palmitoyl-2-(12-((7-nitro-2-1,3-benzoxadiazol-4-yl)amino)dodecanoyl)-sn-glycero-3-phosphate]
- binding to PtdOH species in liposomes [1]: did not bind

Molecule: C[N+](C)(C)CCO.[Cl-] [Choline chloride, choline chloride]
- stabilization of DsRED-TGD4-His against precipitation (DsRED-TGD4-His): minimize precipitation
- stabilization of DsRED-TGD4-His against precipitation (DsRED-TGD4-His; listed as choline chloride): stabilized DsRED-TGD4-His

Molecule: [Cl-].[Na+] [NaCl, sodium chloride]
- stabilization of DsRED-TGD4-His against precipitation (DsRED-TGD4-His): not able to stabilize DsRED-TGD4-His

Molecule: CCCCCCCC/C=C\CCCCCCCC(=O)OC[C@H](COP(=O)([O-])OCC[N+](C)(C)C)OC(=O)CCCCCCC/C=C\CCCCCCCC [PC, phosphatidylcholine]
- PC-liposome binding [2]: No detectable PC-liposome binding
- binding to PA or PC [3]: no interaction
- binding to PC or PA [4]: does not display binding
- liposome binding [5]: did not bind

Molecule: CCCCCCCCCCCCCCCC(=O)OC[C@H](COP(=O)(O)O)OC(=O)CCCCCCCCCCCCCCC [dipalmitoyl PtdOH, dipalmitoyl phosphatidic acid]
- binding to PtdOH species in liposomes [1]: bind

Molecule: CCCCCCCCCCCCCCCCCC(=O)OC[C@H](COP(=O)(O)O)OC(=O)CCCCCCCCCCCCCCCCC [distearoyl PtdOH, distearoyl phosphatidic acid]
- binding to PtdOH species in liposomes [1]: appeared to be stronger

Molecule: DR-25: DsRed fused to the TGD2 minimal PA binding domain, residues 201-225 (SEQ ID NO: 12) (IMPRNPIPEPSVGPLHPECGKEGLI; also: fused to DsRed, end not given here; UniProt Q9LTR2 201-225, looked up, fragment)
- PA binding in liposome-association assay ([6]; listed as 25-amino-acid segment): necessary and sufficient for PtdOH binding
- PA binding in liposome-association assay ([6]; listed as region between residues 201 and 225 (SEQ ID NO:12)): much less overall binding

B1: DsRED-His: DsRED-His protein itself, control without TGD4 (protein, UniProt Q9U6Y8 1-225, looked up)
Red fluorescent protein …: MRSSKNVIKEFMRFKVRMEGTVNGHEFEIEGEGEGRPYEGHNTVKLKVTKGGPLPFAWDILSPQFQYGSKVYVKHPADIPDYKKLSFPEGFKWERVMNFEDGGVVTVTQDSSLQDGCFIYKVKFIGVNFPSDGPVMQKKTMGWEASTERLYPRDGVLKGEIHKALKLKDGGHYLVEFKSIYMAKKPVQLPGYYYVDSKLDITSHNEDYTIVEQYERTEGRHHLFL
modifications: His-tag
notes: DsRED-His protein itself, control without TGD4
- PtdOH binding affinity of TGD4 derivatives [7]: Except for DsRED-His alone, tested recombinant fusion proteins bound to PtdOH-containing liposomes
- lipid binding in overlay, phospholipids ([8]; commercially available membranes, FIG. 18A): not observed to bind to any of the lipids on either membrane tested
- lipid binding in overlay, plant/chloroplast lipids ([8]; lipids manually spotted onto membranes, FIG. 18B): not observed to bind to any of the lipids on either membrane tested
